Laboratory results reported in BigSolDB 2.1.

CC(C)(C)C(O)(CCc1ccc(Cl)cc1)Cn1cncn1 (stereo not given)
solubility (mole fraction)
Settings | in 2-butanone | in acetone | in acetonitrile | in ethanol | in ethyl acetate | in isopropanol | in methanol | in n-propanol | in toluene
278.15 K | 0.0404 | 0.0304 | 0.00516 | 0.0103 | 0.0244 | 0.00877 | 0.0154 | 0.00704 | 0.0217
280.65 K | 0.0439 | 0.0336 | 0.00585 | 0.0118 | 0.027 | 0.0103 | 0.0174 | 0.00825 | 0.0244
283.15 K | 0.0476 | 0.038 | 0.00662 | 0.0136 | 0.03 | 0.012 | 0.0196 | 0.00953 | 0.0276
285.65 K | 0.0524 | 0.0416 | 0.00746 | 0.0157 | 0.0336 | 0.0138 | 0.0225 | 0.0112 | 0.0311
288.15 K | 0.0569 | 0.0461 | 0.00838 | 0.0179 | 0.0377 | 0.0159 | 0.0253 | 0.0133 | 0.0354
290.65 K | 0.0612 | 0.0507 | 0.00942 | 0.0203 | 0.0421 | 0.018 | 0.0284 | 0.0153 | 0.0404
293.15 K | 0.0659 | 0.0562 | 0.0107 | 0.0234 | 0.0466 | 0.0204 | 0.032 | 0.0175 | 0.0453
295.65 K | 0.0709 | 0.0613 | 0.012 | 0.0264 | 0.0512 | 0.023 | 0.0359 | 0.0201 | 0.0512
298.15 K | 0.076 | 0.0668 | 0.0134 | 0.0299 | 0.0564 | 0.026 | 0.04 | 0.0227 | 0.0578
300.65 K | 0.0815 | 0.0723 | 0.0149 | 0.0333 | 0.0612 | 0.0293 | 0.0444 | 0.0258 | 0.0644
303.15 K | 0.0869 | 0.0789 | 0.0165 | 0.037 | 0.0668 | 0.0328 | 0.0497 | 0.0296 | 0.0712
305.65 K | 0.0928 | 0.0851 | 0.0186 | 0.0411 | 0.0734 | 0.0367 | 0.0551 | 0.0338 | 0.079
308.15 K | 0.0987 | 0.0925 | 0.0208 | 0.0463 | 0.0797 | 0.0416 | 0.06 | 0.0388 | 0.0873
310.65 K | 0.106 | 0.101 | 0.0233 | 0.0515 | 0.0867 | 0.0462 | 0.0659 | 0.0444 | 0.0964
313.15 K | 0.113 | 0.11 | 0.0261 | 0.0572 | 0.0945 | 0.0519 | 0.0724 | 0.0498 | 0.105
